Patent US20110190306A1, “Inhibitors of PLK” (CHROMA THERAPEUTICS LTD., priority 2008, published 2011)
pIC50: −log10 of the molar value.

System: HCT 116 cell line
Experiment: Cell inhibition assay (WST-1 proliferation), HCT-116
Assay type: cell-based
Settings: Homo sapiens, 72 hrs incubation, read-out: Inhibitor Activity vs HCT 116 cell line
Method: Cells were seeded in 96W tissue culture plates (1 well=30 mm^2) in 50 μl of the appropriate culture medium (see below). Seeding densities were cell-line dependent: HCT-116=1000 cells per well, Hut-78=2250 cells per well, U937 cells=2000 cells per well. 24 hrs later 50 μL of the compound prepared in the same medium was added as 4 fold dilutions to give final concentrations in the range 0.15 nM-2500 nM (n=6 for each concentration). The plates were then incubated at 37° C., 5% CO2 for 72 hrs. Cell proliferation was assessed using WST-1 (a metabolic indicator dye, Roche Cat no. 1 644 807) according to the manufacturers instructions. The results were calculated as percentage of vehicle response and IC50 values represent the concentration of compound that inhibited the vehicle response by 50%.
HCT-116 Culture Medium—Dulbeccos MEM (Sigma D6546) plus 10% heat inactivated fetal calf serum (Hyclone SH30071 Thermo Fischer Scientific) containing 2 mM Glutamine (Sigma cat no G-7513) and 50 U/mL Penicillin and Streptomycin Sulphate (Sigma Cat no P-0781).

CC[C@@H]1C(=O)N(C)c2cnc(Nc3ccc(C(=O)NC4CCN(CC[C@](C)(N)C(=O)OC)CC4)cc3OC)nc2N1C1CCCC1 [Example 1, Methyl 4-{4-[(4-{[(7R)-8-cyclopentyl-7-ethyl-5-methyl-6-oxo-5,6,7,8-tetrahydropteridin-2-yl]amino}-3-methoxybenzoyl)amino]piperidin-1-yl}isovalinate]
pIC50: 6.30 to 7.00
